Consider nine molecules from PubChem BioAssay (NCI).

Test systems include 786-0 renal; ACHN renal; BT-549 breast; EKVX NSCLC; HCT-116 colon; HOP-62 NSCLC; K-562 leukemia; MALME-3M melanoma; MDA-MB-231 breast; NCI/ADR-RES ovarian; SK-MEL-5 melanoma; SR leukemia; TK-10 renal; UACC-257 melanoma; PC-3 prostate; SF-539 CNS; SW-620 colon; UACC-62 melanoma; HS 578T breast.
Holding throughout (experiment): NCI anticancer screen, dose series, 48 h

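Protocol summary: plate cells (96-well), add compound at 5 concentrations, incubate 48 h, interpolate endpoints linearly. TGI marks complete inhibition of growth.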

Take `O=C(O)Cn1nnc2c(=O)[nH][nH]c(=O)c21`: the TGI in the experiment with 786-0 renal, with ACHN renal, in the experiment with BT-549 breast, in the experiment with EKVX NSCLC, with HCT-116 colon and in the experiment on HOP-62 NSCLC was more than 100 µM in each case. In addition, the TGI was more than 10 µM in the experiment with K-562 leukemia; more than 100 µM with MALME-3M melanoma; more than 100 µM in the experiment on MDA-MB-231 breast; more than 100 µM with NCI/ADR-RES ovarian; more than 100 µM in the experiment on SK-MEL-5 melanoma; more than 100 µM in the experiment on SR leukemia. The TGI in the experiment on TK-10 renal and with UACC-257 melanoma was more than 100 µM throughout.

Turning to `Cc1cccc2nc3n(c12)C(=O)c1ccccc1-3`, the TGI in the experiment with 786-0 renal, with ACHN renal, in the experiment on BT-549 breast, in the experiment with EKVX NSCLC, with HCT-116 colon and in the experiment on HOP-62 NSCLC was more than 100 µM throughout. In addition, the TGI with K-562 leukemia, in the experiment with MALME-3M melanoma, with NCI/ADR-RES ovarian, with PC-3 prostate, with SF-539 CNS and with SR leukemia was more than 100 µM in each case. The TGI with SW-620 colon, with TK-10 renal, in the experiment on UACC-257 melanoma and in the experiment on UACC-62 melanoma was more than 100 µM in each case.

As to `Cc1cc(=O)oc2c(CNC(C)C(=O)O)c(O)ccc12` (stereo not drawn), the TGI in the experiment with 786-0 renal, in the experiment with ACHN renal, in the experiment with EKVX NSCLC, in the experiment on HCT-116 colon, in the experiment on HOP-62 NSCLC and in the experiment with HS 578T breast was more than 100 µM each time. In addition, the TGI in the experiment on K-562 leukemia, in the experiment with MALME-3M melanoma, with MDA-MB-231 breast, in the experiment with NCI/ADR-RES ovarian, in the experiment with PC-3 prostate and with SF-539 CNS was more than 100 µM each time. Besides, the TGI in the experiment on SK-MEL-5 melanoma, in the experiment on SR leukemia, in the experiment with SW-620 colon, in the experiment with TK-10 renal, in the experiment with UACC-257 melanoma and in the experiment on UACC-62 melanoma was more than 100 µM in each case.

As to `COc1c(C(=O)/C(=N/Nc2ccccc2)C(C)=O)c(O)c(OC)c2occc12`, the TGI in the experiment on 786-0 renal, in the experiment on ACHN renal, with EKVX NSCLC, with HCT-116 colon, in the experiment with HOP-62 NSCLC and with HS 578T breast was more than 100 µM in each case. For the same molecule, the TGI in the experiment with K-562 leukemia was more than 100 µM; with MALME-3M melanoma it was 92 µM; in the experiment with MDA-MB-231 breast, more than 100 µM; with NCI/ADR-RES ovarian, more than 100 µM; in the experiment on PC-3 prostate it was more than 100 µM; in the experiment with SF-539 CNS it was more than 100 µM. Also, the TGI with SK-MEL-5 melanoma is 31.7 µM; in the experiment on SR leukemia, more than 100 µM; in the experiment with SW-620 colon, more than 100 µM; in the experiment on TK-10 renal, more than 100 µM; with UACC-257 melanoma it was more than 100 µM; with UACC-62 melanoma it was more than 100 µM.

Regarding `SC[C@@H]1COC[C@H](CS)S1`, the TGI in the experiment with 786-0 renal, with BT-549 breast, with EKVX NSCLC, with HCT-116 colon, with HOP-62 NSCLC and in the experiment on K-562 leukemia was more than 100 µM throughout. For the same molecule, the TGI in the experiment with MDA-MB-231 breast, in the experiment with PC-3 prostate, with SF-539 CNS, in the experiment with SK-MEL-5 melanoma, in the experiment with SR leukemia and with SW-620 colon was more than 100 µM in each case. Also, the TGI in the experiment with TK-10 renal, in the experiment with UACC-257 melanoma and with UACC-62 melanoma was more than 100 µM in each case.

In the case of `C=C[C@@]1(C)CC2CC[C@]3(C)C(C)=CC(=O)CC3[C@]2(C)CC1O` (stereo partly drawn), the TGI in the experiment with 786-0 renal, in the experiment with ACHN renal, in the experiment on EKVX NSCLC, in the experiment on HCT-116 colon, in the experiment on HOP-62 NSCLC and in the experiment on HS 578T breast was more than 100 µM each time. Moreover, the TGI with K-562 leukemia, in the experiment on MALME-3M melanoma, in the experiment on NCI/ADR-RES ovarian, in the experiment with PC-3 prostate, in the experiment with SF-539 CNS and with SK-MEL-5 melanoma was more than 100 µM each time. The TGI in the experiment with SR leukemia, in the experiment with SW-620 colon, with TK-10 renal, in the experiment on UACC-257 melanoma and in the experiment with UACC-62 melanoma was more than 100 µM in each case.

As for `Nc1ncnc2c1ncn2[C@@H]1C[C@H]1CO`, the TGI in the experiment on 786-0 renal, with ACHN renal, in the experiment on EKVX NSCLC, in the experiment with HCT-116 colon, in the experiment with HOP-62 NSCLC and in the experiment with HS 578T breast was more than 100 µM in each case. Also, the TGI in the experiment with K-562 leukemia, in the experiment with MALME-3M melanoma, in the experiment on MDA-MB-231 breast, in the experiment with NCI/ADR-RES ovarian, in the experiment on PC-3 prostate and with SF-539 CNS was more than 100 µM each time. Besides, the TGI in the experiment with SR leukemia, with SW-620 colon and with UACC-257 melanoma was more than 100 µM each time.

For the molecule `Cc1ccc(S(=O)(=O)c2c(N)c3nccn3c3nc4ccccc4nc23)cc1`, the TGI in the experiment with 786-0 renal, in the experiment with ACHN renal, in the experiment with EKVX NSCLC, with HCT-116 colon, in the experiment on HOP-62 NSCLC and with K-562 leukemia was more than 100 µM each time. In addition, the TGI in the experiment with MALME-3M melanoma, with SF-539 CNS, with SK-MEL-5 melanoma, with SR leukemia, in the experiment on SW-620 colon and in the experiment with TK-10 renal was more than 100 µM throughout. Besides, the TGI in the experiment with UACC-257 melanoma and in the experiment on UACC-62 melanoma was more than 100 µM throughout.

With `CCN(CC)CCCC(C)NC(=O)c1cc(-c2nccn2C)nc2ccc(C)cc12` (stereo not drawn), the TGI with 786-0 renal, in the experiment with ACHN renal, with BT-549 breast, in the experiment on EKVX NSCLC, with HCT-116 colon and in the experiment with HOP-62 NSCLC was more than 100 µM throughout. The TGI with MALME-3M melanoma, in the experiment with MDA-MB-231 breast, in the experiment with NCI/ADR-RES ovarian, in the experiment with PC-3 prostate, with SF-539 CNS and with SK-MEL-5 melanoma was more than 100 µM in each case. Also, the TGI with SW-620 colon, with TK-10 renal, with UACC-257 melanoma and in the experiment with UACC-62 melanoma was more than 100 µM in each case.
